How the values were obtained:
[1] = Ex vivo permeation on animal skin after pretreatment with promoter compound (permeation index vs blank reference product); format: in vitro ADME; details: for Permeation index: ratio of cumulative amount of testosterone at 24 hours after skin pretreatment with the compound relative to blank, 1 = no promoting effect
Text: FIG. 1 represents the permeation indices (PIs), also known as the “enhancement factors” for comparing in vitro the promoting effect of different products.
This is the product sold by the company Alza under the brand name Testoderm CIII®. This matrix transdermal device for scrotal application is free of promoters and, consequently, is more particularly suitable for performing in vitro protocols intended to select the best permeation promoters of this active principle.
As regards the second category of products, it is more particularly advantageous to check their permeation-promoting effect with respect to the active principle according to the invention. Ex vivo studies of permeation on animal skin are carried out using a reference product whose kinetics constitute a “blank”, and then after initial pretreatment of the skin with the promoter compound. The ratio of the cumulative amount at 24 hours of the test relative to the “blank” gives the permeation index “PI” factor or “enhancement factor”. A permeation index of close to 1 means that the test product has no promoting effect for the active principle under consideration and under the operating conditions used. A classification is then possible according to the indications of table II below.

[2] = Solubility at saturation of testosterone in solvents/excipients; format: physicochemical
Method: Studies for selecting the components of the adhesive matrix other than the actual adhesive are useful and involve solubility and in vitro permeation tests. To evaluate the solubilizing power of different components, solubility studies at saturation are performed.

Compound: CCN(CC)C(=O)c1cccc(C)c1 [DEET, N,N-diethyl-m-toluamide]
- testosterone permeation-promoting effect ([1]; in words): lacks any testosterone-promoting effect

Compound: CCCCCCCCCCCCN1CCCC1=O [Laurylpyrrolidone]
- Permeation index [1]: 11.27

Compound: C[C@]12CCC(=O)C=C1CC[C@@H]1[C@@H]2CC[C@]2(C)C(O)CC[C@@H]12 (some centres unmarked) [testosterone, 17-hydroxyandrost-4-en-3-one]
- Solubility at saturation of testosterone ([2]; in Cyclohexane): 0.06 % m/m
- Solubility at saturation of testosterone ([2]; in Ethanol): 22.12 % m/m
- Solubility at saturation of testosterone ([2]; in Ethyl acetate): 4.45 % m/m
- Solubility at saturation of testosterone ([2]; in Isopropanol): 12.80 % m/m
- Solubility at saturation of testosterone ([2]; in Laurylpyrrolidone): 15.90 % m/m
- Solubility at saturation of testosterone ([2]; in Lysophosphatidylcholine): 6.96 % m/m
- Solubility at saturation of testosterone ([2]; in Methyl laurate): 1.43 % m/m
- Solubility at saturation of testosterone ([2]; in Polysorbate 80): 2.62 % m/m
- Solubility at saturation of testosterone ([2]; in Sorbitan laurate): 4.12 % m/m
- Solubility at saturation of testosterone ([2]; in Tetrahydrofuran): 27.01 % m/m

Compound: Lysophosphatidylchloline
- Permeation index [1]: 9.18

Compound: Sorbitan laurate
- Permeation index [1]: 11.70

From US7018648B2, “Transdermal device for administering testosterone or one of the derivatives thereof” (Pierre Fabre Medicament, priority 1999, dated 2006)
